No end group written: not given here.
Columns and labels:
Type in all cases: cell-based, human
[1] = tested on: apolipoprotein E production in Hep G2 cells; experiment: Production of apolipoprotein E in Hep G2 cells, enzyme immunoassay of cultured broth (Example 2: 7 h with compound); conditions: Conc. 1 μM, control = 100
Protocol: The mouse antihuman apolipoprotein E monocional antibody (manufactured by BYOSIS, S. A., France) was dissolved in a 0.05M aqueous sodium hydrogencarbonate solution (pH 9.5) at a concentration of […]. 50 μl of this solution was poured in portions into a Nunk immunoplate, which was then allowed to stand at 4° C. for 16 hours. After washing thrice with 300 μl of PBS, 300 μl of the blocking solution was added and the mixture was allowed to stand at 37° C. for 2 hours.
It was again washed three times with 300 μl of PBS, 50 μl of the above cultured broth 1 was added and the mixture was allowed to stand at room temperature for 2 hours. After washing three times with 300 μl of PBS-T, 50 μl of a 3000-fold diluted solution (10% aqueous Block Ace solution) of goat anti-apolipoprotein E polyclonal antibody (manufactured by Chemicon Co., Ltd., U.S.A.) was added and the mixture was allowed to stand at room temperature for 2 hours. […] The reaction was discontinued by the addition of 100 μl of 2N sulfuric acid, and absorbance at 490 nm was measured using absorbance at 650 nm as a control. An absolute amount of apolipoprotein E in cultured broths 1-6 was determined upon a calibration curve drawn up when a commercially available apolipoprotein E (Chemicon Co., Ltd., U.S.A.) was used as a standard. […]

[2] = tested on: apolipoprotein A1 production in Hep G2 cells; experiment: Production of apolipoprotein A1 in Hep G2 cells, enzyme immunoassay of cultured broth (Example 2); conditions: Conc. 1 μM, 7 hours, control = 100
Protocol: (§1) First, 1 ml portions of Hep G2 cells at 1×10^5 cells/ml suspended in D-MEM medium containing 10% fetal bovine serum were poured into a 24-well tissue culture plate and cultivation was carried out at 37° C. under atmosphere of a mixed gas composed of 5% carbon dioxide and 95% air for 3 days. Thereafter, the medium was removed by means of a pipette, 1 ml of fresh D-MEM medium was added and cultivation was again carried out at 37° C. under atmosphere of a mixed gas composed of 5% carbon dioxide and 95% air for one day. Then, the medium was removed by means of a pipette and washed three times with 0.5 ml of fresh D-MEM medium. 1 ml of fresh D-MEM medium was added and further 10 μl of a solution of the cyclic depsipeptide of the invention or Compound 1, 4, 5, 6, 7 or 8 dissolved in methanol at the concentration as shown in Table 3 was added. […]
It was again washed three times with 300 μl of PBS, 100 μl of the above Cultured Broths 7-10 was added and the mixture was allowed to stand at room temperature for 2 hours. […] The reaction was discontinued by the addition of 100 μl of 2N sulfuric acid, and absorbance at 490 nm was measured using absorbance at 650 nm as a control. An absolute amount of apolipoprotein A1 was determined upon a calibration curve drawn up when a commercially available apolipoprotein Al (manufactured by Sigma, U.S.A.) was used as a standard. […]

[3] = tested on: apolipoprotein B production in Hep G2 cells; experiment: Production of apolipoprotein B in Hep G2 cells, enzyme immunoassay of cultured broth (Example 2); conditions: Conc. 1 μM, 7 hours, control = 100
Protocol: as §1, with “medium.” for “medium. 1 ml of fresh D-MEM medium was added and further 10 μl of a solution of the cyclic depsipeptide of the invention or Compound 1, 4, 5, 6, 7 or 8 dissolved in methanol at the concentration as shown in Table 3 was added.”
The sheep antihuman apolipoprotein B IgG fraction (manufactured by Bindingsite Co., Ltd., U.K.) was dissolved in a 0.05M aqueous sodium hydrogencarbonate solution (pH 9.5) at a concentration of 10 μg/ml. […] The reaction was discontinued by the addition of 100 μl of 2N sulfuric acid, and absorbance at 490 nm was measured using absorbance at 650 nm as a control. The absorbance obtained was defined as that of apolipoprotein B. An absolute amount of apolipoprotein B was determined upon a calibration curve drawn up when a commercially available low density lipoprotein (manufactured by Sigma, U.S.A.) was used as a standard. […]

For “Compound 7 (QLLVDLI; ester (positions not given here); also: cyclic depsipeptide, ring closure places not given here)”, the “Relative amount of apolipoprotein E (%)” value [1] was 163%, the “Relative amount of apolipoprotein A1 (%)” value [2] was 135% and the “Relative amount of apolipoprotein B (%)” value [3] was 76%.

Source: patent publication US6858585B1, “Cyclic depsipeptides and drugs containing the same as the active ingredient” (Nisshin Seifun Group Inc., priority 1996, dated 2005)
